Reference: patent US12370182B2, “Bicyclic derivatives as GABAA A5 receptor modulators” (RICHTER GEDEON NYRT., priority 2018, dated 2025)
pKi: −log10 of the molar value.

These molecules were tested against human recombinant GABAA α5β3γ2 receptor (Homo sapiens (Human), UniProt P18507+P31644) (assay: Binding assay, [3H]Ro151788 displacement on membranes of HEK cells). Settings: 0.5 nM [3H]Ro151788, 60 minutes at 4° C., Cheng-Prusoff; read-out: hGABAA α5 Ki.
Experimental: The GABAA α5β3γ2 protein used for the receptor binding assay was derived from membranes produced from HEK cells (Millipore CYL3073) expressing the human recombinant GABAA α5β3γ2 receptor. Cells were stored and cultured in-house according to the instructions provided by the vendor (Millipor). Cell pellet was homogenized in 10 times modified Krebs Henseleit buffer (membrane preparation buffer): 20 mM Tris, 120 mM NaCl, 100 mM KCl, 25 mM CaCl2) and 25 mM MgCl2 pH=7.4 at 4° C. using Ultra Turrax (Janke&Kunkel) maximal speed for 15 seconds. The homogenate was centrifuged at 40,000 g for 30 minutes at 4° C. Supernatant was discarded and the resulting pellet was washed in membrane preparation buffer. Pellet was resuspended in membrane preparation buffer and aliquots of 1.4 mL ampulles were stored at −70° C. until use.
Receptor binding assays were performed in 96-well format in deep-well plates. For each 96-well plate one ampulle of membrane homogenate was thawed and diluted in binding buffer (50 mM Tris pH=7.4, 100 mM KCl) and 200 μL was dispensed into each well. Radioligand [^3H]Ro151788 (Perkin Elmer: NET757250UC) was prepared in binding buffer and added to each well in 50 μL volume to give final concentration of 0.5 nM. Test compounds in suitable concentration(s) were added in additional 50 μL. The final assay volume was 300 μL. Incubation was carried out for 60 minutes at 4° C. For non-specific binding 10 μM unlabeled diazepam was used. After incubation samples were filtered over UniFilter® GF/B™ using Filtermate Harvester (Perkin Elmer) and washed with 5×1 mL binding buffer. The plate was dried at 40° C. for an hour and 40 μL Microscint (Perkin Elmer) scintillation cocktail was added to each well. The plate was read in Microbeta (Perkin Elmer).
The specific radioligand binding (SB) was defined as the difference between total binding (Tot) and the non-specific binding (NSB). Results are expressed as a percent inhibition of specific binding obtained in the presence of compound of interest.
For IC50 and Ki determination a minimum of six drug concentrations in triplicate were used. […] Ki values (i.e. inhibition constants) were calculated using the Cheng-Prusoff equation Ki=IC50/[1+(L/KD)], where [L] is the radioligand concentration and KD the affinity of the labelled ligand for receptor. KD was determined from the Saturation analyses.

Chain of human recombinant GABAA α5β3γ2 receptor (P31644 32-462): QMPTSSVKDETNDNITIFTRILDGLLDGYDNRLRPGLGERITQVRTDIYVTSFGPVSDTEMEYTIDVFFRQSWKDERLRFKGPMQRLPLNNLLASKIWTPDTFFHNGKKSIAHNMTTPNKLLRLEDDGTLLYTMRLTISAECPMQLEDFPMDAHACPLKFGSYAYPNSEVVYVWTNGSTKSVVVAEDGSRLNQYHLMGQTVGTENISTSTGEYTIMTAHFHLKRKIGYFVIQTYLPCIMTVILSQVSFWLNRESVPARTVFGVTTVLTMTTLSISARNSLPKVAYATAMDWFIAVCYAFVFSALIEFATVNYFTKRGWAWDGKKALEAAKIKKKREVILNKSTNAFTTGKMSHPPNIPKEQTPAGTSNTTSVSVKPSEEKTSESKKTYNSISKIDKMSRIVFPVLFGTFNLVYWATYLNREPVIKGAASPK
Chain of human recombinant GABAA α5β3γ2 receptor (P28472 26-473 partner): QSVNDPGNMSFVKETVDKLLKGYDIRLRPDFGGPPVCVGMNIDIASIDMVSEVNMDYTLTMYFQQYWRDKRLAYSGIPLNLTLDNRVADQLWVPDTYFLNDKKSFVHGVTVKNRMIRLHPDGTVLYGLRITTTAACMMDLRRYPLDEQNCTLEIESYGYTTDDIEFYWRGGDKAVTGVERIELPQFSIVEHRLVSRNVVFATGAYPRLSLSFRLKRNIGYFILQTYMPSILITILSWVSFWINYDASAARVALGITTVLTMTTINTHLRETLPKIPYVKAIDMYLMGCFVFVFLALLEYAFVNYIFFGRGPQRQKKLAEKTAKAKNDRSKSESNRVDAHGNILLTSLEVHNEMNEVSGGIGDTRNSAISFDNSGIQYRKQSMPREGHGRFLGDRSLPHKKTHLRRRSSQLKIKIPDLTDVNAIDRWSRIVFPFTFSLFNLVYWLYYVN
Chain of human recombinant GABAA α5β3γ2 receptor (P18507 40-475): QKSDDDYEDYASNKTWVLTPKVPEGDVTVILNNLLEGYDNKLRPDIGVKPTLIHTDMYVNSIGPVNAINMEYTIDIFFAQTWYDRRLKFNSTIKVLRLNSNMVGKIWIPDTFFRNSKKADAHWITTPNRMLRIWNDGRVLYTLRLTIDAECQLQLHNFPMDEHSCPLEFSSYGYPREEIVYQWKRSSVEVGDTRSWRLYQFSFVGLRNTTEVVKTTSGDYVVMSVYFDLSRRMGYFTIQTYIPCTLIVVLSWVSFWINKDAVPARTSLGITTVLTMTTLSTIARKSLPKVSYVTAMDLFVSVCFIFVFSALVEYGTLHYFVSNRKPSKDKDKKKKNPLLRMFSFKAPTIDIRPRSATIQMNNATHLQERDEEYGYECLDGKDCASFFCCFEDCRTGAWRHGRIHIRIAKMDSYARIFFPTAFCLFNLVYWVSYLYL

Row | pKi | SMILES
1 | 7.17 | Cc1nnn(-c2ccc(F)cc2)c1COc1ccc2c(n1)CCN(C(=O)[C@H]1CCC(=O)N1C)C2 [Example 41, (5R)-5-(2-{[1-(4-fluorophenyl)-4-methyl-1H-1,2,3-triazol-5-yl]methoxy}-5,6,7,8-tetrahydro-1,6-naphthyridine-6-carbonyl)-1-methylpyrrolidin-2-one]
2 | 7.89 | COCC(=O)N1CCc2nc(OCc3c(C)nnn3-c3ccc(Cl)cc3)ccc2C1 [Example 42, 1-(2-{[1-(4-chlorophenyl)-4-methyl-1H-1,2,3-triazol-5-yl]methoxy}-5,6,7,8-tetrahydro-1,6-naphthyridin-6-yl)-2-methoxyethan-1-one]
3 | 7.52 | CCN1CC(C(=O)N2CCc3nc(OCc4c(C)nnn4-c4ccc(F)cc4)ccc3C2)CC1=O (stereo not drawn) [Example 43, 1-ethyl-4-(2-{[1-(4-fluorophenyl)-4-methyl-1H-1,2,3-triazol-5-yl]methoxy}-5,6,7,8-tetrahydro-1,6-naphthyridine-6-carbonyl)pyrrolidin-2-one]
4 | 7.27 | Cc1nnn(-c2ccc(F)cc2)c1COc1ccc2c(n1)CCN(C(=O)C1CC(=O)N(C(C)C)C1)C2 (stereo not drawn) [Example 44, 4-(2-{[1-(4-fluorophenyl)-4-methyl-1H-1,2,3-triazol-5-yl]methoxy}-5,6,7,8-tetrahydro-1,6-naphthyridine-6-carbonyl)-1-(propan-2-yl)pyrrolidin-2-one]
5 | 7.08 | Cc1nnn(-c2ccc(F)cc2)c1COc1ccc2c(n1)CCN(C(=O)C1CCC(=O)N(C)C1)C2 (stereo not drawn) [Example 46, 5-(2-{[1-(4-fluorophenyl)-4-methyl-1H-1,2,3-triazol-5-yl]methoxy}-5,6,7,8-tetrahydro-1,6-naphthyridine-6-carbonyl)-1-methylpiperidin-2-one]
6 | 7.48 | Cc1onc(-c2ccc(F)cc2)c1COc1ccc2c(n1)CCN(C(=O)CCS(C)(=O)=O)C2 [Example 48, 1-(2-{[3-(4-fluorophenyl)-5-methyl-1,2-oxazol-4-yl]methoxy}-5,6,7,8-tetrahydro-1,6-naphthyridin-6-yl)-3-methanesulfonylpropan-1-one]
7 | 8.92 | Cc1onc(-c2ccc(F)cc2)c1COc1ccc2c(n1)CN(C(=O)CS(C)(=O)=O)C2 [Example 49, 1-(2-{[3-(4-fluorophenyl)-5-methyl-1,2-oxazol-4-yl]methoxy}-5H,6H,7H-pyrrolo[3,4-b]pyridin-6-yl)-2-methanesulfonylethan-1-one]
8 | 9.10 | CC(=O)N1Cc2ccc(OCc3c(-c4ccc(F)cc4)noc3C)nc2C1 [Example 50, 1-(2-{[3-(4-fluorophenyl)-5-methyl-1,2-oxazol-4-yl]methoxy}-5,7-dihydro-6H-pyrrolo[3,4-b]pyridin-6-yl)ethanone]
9 | 7.43 | CCC(=O)N1Cc2ccc(OCc3c(C)nnn3-c3ccc(F)cc3)nc2C1 [Example 52, 1-(2-{[1-(4-fluorophenyl)-4-methyl-1H-1,2,3-triazol-5-yl]methoxy}-5,7-dihydro-6H-pyrrolo[3,4-b]pyridin-6-yl)propan-1-one]
10 | 7.96 | Cc1nnn(-c2ccc(F)cc2)c1COc1ccc2c(n1)CN(C(=O)C(F)F)C2 [Example 53, 2,2-difluoro-1-(2-{[1-(4-fluorophenyl)-4-methyl-1H-1,2,3-triazol-5-yl]methoxy}-5,7-dihydro-6H-pyrrolo[3,4-b]pyridin-6-yl)ethanone]
11 | 7.89 | Cc1nnn(-c2ccc(F)cc2)c1COc1ccc2c(n1)CN(C(=O)C1CCOCC1)C2 [Example 55, 1-(4-fluorophenyl)-4-methyl-5-({[6-(oxane-4-carbonyl)-5H,6H,7H-pyrrolo[3,4-b]pyridin-2-yl]oxy}methyl)-1H-1,2,3-triazole]
12 | 7.85 | Cc1nnn(-c2ccc(F)cc2)c1COc1ccc2c(n1)CN(C(=O)C1CCC1)C2 [Example 57, 5-[({6-cyclobutanecarbonyl-5H,6H,7H-pyrrolo[3,4-b]pyridin-2-yl}oxy)methyl]-1-(4-fluorophenyl)-4-methyl-1H-1,2,3-triazole]
13 | 7.89 | Cc1nnn(-c2ccc(F)cc2)c1COc1ccc2c(n1)CN(C(=O)C(C)C)C2 [Example 58, 1-(2-{[1-(4-fluorophenyl)-4-methyl-1H-1,2,3-triazol-5-yl]methoxy}-5H,6H,7H-pyrrolo[3,4-b]pyridin-6-yl)-2-methylpropan-1-one]
14 | 7.51 | Cc1nnn(-c2ccc(F)cc2)c1COc1ccc2c(n1)CN(C(=O)C(C)(C)C)C2 [Example 59, 1-(2-{[1-(4-fluorophenyl)-4-methyl-1H-1,2,3-triazol-5-yl]methoxy}-5H,6H,7H-pyrrolo[3,4-b]pyridin-6-yl)-2,2-dimethylpropan-1-one]
15 | 8.92 | CC(=O)N1Cc2ccc(OCc3c(C)nnn3-c3ccc(Cl)cc3)nc2C1 [Example 60, 1-(2-{[1-(4-chlorophenyl)-4-methyl-1H-1,2,3-triazol-5-yl]methoxy}-5,7-dihydro-6H-pyrrolo[3,4-b]pyridin-6-yl)ethanone]
16 | 8.24 | Cc1nnn(-c2ccc(F)cc2)c1COc1ccc2c(n1)CN(C(=O)C1CCOC1)C2 (stereo not drawn) [Example 62, 1-(4-fluorophenyl)-4-methyl-5-({[6-(oxolane-3-carbonyl)-5H,6H,7H-pyrrolo[3,4-b]pyridin-2-yl]oxy}methyl)-1H-1,2,3-triazole]
17 | 8.02 | Cc1nnn(-c2ccc(F)cc2)c1COc1ccc2c(n1)CN(C(=O)C1CCCOC1)C2 (stereo not drawn) [Example 63, 1-(4-fluorophenyl)-4-methyl-5-({[6-(oxane-3-carbonyl)-5H,6H,7H-pyrrolo[3,4-b]pyridin-2-yl]oxy}methyl)-1H-1,2,3-triazole]
18 | 7.60 | Cc1nnn(-c2ccc(F)cc2)c1COc1ccc2c(n1)CN(C(=O)c1ccncc1)C2 [Example 64, 4-(2-{[1-(4-fluorophenyl)-4-methyl-1H-1,2,3-triazol-5-yl]methoxy}-5H,6H,7H-pyrrolo[3,4-b]pyridine-6-carbonyl)pyridine]
19 | 7.55 | Cc1nnn(-c2ccc(F)cc2)c1COc1ccc2c(n1)CN(C(=O)c1cccnc1)C2 [Example 65, 3-(2-{[1-(4-fluorophenyl)-4-methyl-1H-1,2,3-triazol-5-yl]methoxy}-5H,6H,7H-pyrrolo[3,4-b]pyridine-6-carbonyl)pyridine]
20 | 7.23 | Cc1nnn(-c2ccc(F)cc2)c1COc1ccc2c(n1)CN(C(=O)c1ccccn1)C2 [Example 66, 2-(2-{[1-(4-fluorophenyl)-4-methyl-1H-1,2,3-triazol-5-yl]methoxy}-5H,6H,7H-pyrrolo[3,4-b]pyridine-6-carbonyl)pyridine]
21 | 7.70 | CC(=O)N1Cc2ccc(OCc3c(-c4ccc(F)cc4)nnn3C)nc2C1 [Example 67, 1-(2-{[4-(4-fluorophenyl)-1-methyl-1H-1,2,3-triazol-5-yl]methoxy}-5,7-dihydro-6H-pyrrolo[3,4-b]pyridin-6-yl)ethanone]
22 | 8.12 | CC(=O)N1Cc2ccc(OCc3c(-c4ccc(Cl)cc4)nnn3C)nc2C1 [Example 68, 1-(2-{[4-(4-chlorophenyl)-1-methyl-1H-1,2,3-triazol-5-yl]methoxy}-5,7-dihydro-6H-pyrrolo[3,4-b]pyridin-6-yl)ethanone]
23 | 7.60 | CCC(=O)N1Cc2ccc(OCc3c(-c4ccc(F)cc4)nnn3C)nc2C1 [Example 69, 1-(2-{[4-(4-fluorophenyl)-1-methyl-1H-1,2,3-triazol-5-yl]methoxy}-5,7-dihydro-6H-pyrrolo[3,4-b]pyridin-6-yl)propan-1-one]
24 | 7.25 | Cn1nnc(-c2ccc(F)cc2)c1COc1ccc2c(n1)CN(C(=O)C1CCOC1)C2 (stereo not drawn) [Example 71, 4-(4-fluorophenyl)-1-methyl-5-({[6-(oxolane-3-carbonyl)-5H,6H,7H-pyrrolo[3,4-b]pyridin-2-yl]oxy}methyl)-1H-1,2,3-triazole]
25 | 7.54 | CC(C)C(=O)N1Cc2ccc(OCc3c(-c4ccc(F)cc4)nnn3C)nc2C1 [Example 72, 1-(2-{[4-(4-fluorophenyl)-1-methyl-1H-1,2,3-triazol-5-yl]methoxy}-5H,6H,7H-pyrrolo[3,4-b]pyridin-6-yl)-2-methylpropan-1-one]

Row | SMILES | pKi
26 | Cc1nnn(-c2ccc(F)cc2)c1COc1ccc2c(n1)CN(C(=O)CF)C2 [Example 54, 2-fluoro-1-(2-{[1-(4-fluorophenyl)-4-methyl-1H-1,2,3-triazol-5-yl]methoxy}-5,7-dihydro-6H-pyrrolo[3,4-b]pyridin-6-yl)ethanone] | 8.28
27 | Cn1nnc(-c2ccc(F)cc2)c1COc1ccc2c(n1)CN(C(=O)CF)C2 [Example 70, 2-fluoro-1-(2-{[4-(4-fluorophenyl)-1-methyl-1H-1,2,3-triazol-5-yl]methoxy}-5,7-dihydro-6H-pyrrolo[3,4-b]pyridin-6-yl)ethanone] | 8.04
